# According to patent publication US20240381868A1, “AGED AQUEOUS ANTIMICROBIAL COMPOSITION” (EVONIK CORPORATION, priority 2021, published 2024):
# Legend:
# [1] = Formation and stability of other peracids at room temperature (titration); assay type: physicochemical
# Description: (§1) The concentrations of formed peracids and hydrogen peroxide were monitored by titration on an auto-titrator and by using Chemetrics test kits K7913F and K-5543.
# Various other peracids were also prepared using corresponding organic acid precursors and hydrogen peroxide as described in the Example 1. Only the acids with low or no odor were used in the experiment. The solutions were kept at room temperature and periodically tested for the concentration of the components using an auto-titrator and standard titration methods.
# [2] = Formation and stability of peroxycitric acid solutions at room temperature (titration); assay type: physicochemical; conditions: H2SO4 catalyst
# Description: as §1
# Two solutions were prepared using solid citric acid (47.9 wt %), 70 wt % hydrogen peroxide (21.8 wt %) and the rest DI water. 0.6 wt % Dequest 2010 stabilizer was added to both solutions. To the first solution (PCA-1), 4.9 wt % concentrated sulfuric acid was added as a catalyst. To the second solution (PCA-2), 0.6 wt % of sulfuric acid was added. Both solutions were kept at room temperature and periodically tested for the concentration of the components using an auto-titrator and standard titration methods.
compound,measurement,setting,value
"O=C(O)CCCC(=O)OO [Peroxyglutaric, perglutaric acid]",Peracid Concentration,[1]; 1 day,0.993 mol/kg
same,Peracid Concentration,[1]; 3 days,1.189 mol/kg
same,Peracid Concentration,[1]; 7 days,1.081 mol/kg
same,Peracid Concentration,[1]; 14 days,0.986 mol/kg
same,Peracid Concentration,[1]; 22 days,0.919 mol/kg
"O=C(O)/C=C\C(=O)OO [Peroxymaleic, Permaleic acid]",max peracid concentration formed,[1],5.1 wt %
same,time for which peracid was stable,[1],at least 78 days
same,Peracid Concentration,[1]; 1 day,0.235 mol/kg
same,Peracid Concentration,[1]; 7 days,0.386 mol/kg
same,Peracid Concentration,[1]; 14 days,0.379 mol/kg
same,Peracid Concentration,[1]; 22 days,0.348 mol/kg
same,Peracid Concentration,[1]; 78 days,0.318 mol/kg
"O=C(O)CC(=O)OO [Peroxymalonic, permalonic acid]",Peracid Concentration,[1]; 3 days,0.442 mol/kg
same,Peracid Concentration,[1]; 7 days,0.200 mol/kg
same,Peracid Concentration,[1]; 14 days,0.083 mol/kg
"O=C(O)C(=O)OO [Peroxyoxalic, peroxalic acid]",concentration of peracid formed,[1],< 1.0 wt %
same,Peracid Concentration,[1]; 3 days,0.047 mol/kg
same,Peracid Concentration,[1]; 7 days,0.066 mol/kg
same,Peracid Concentration,[1]; 14 days,0.057 mol/kg
Percitric acid [PCA],time to reach maximum concentration of PCA,[2],3 to 7 days
